Results from patent publication US20230324370A1, “A DNA-Based Voltmeter for Organelles” (The University of Chicago, priority 2020, published 2023).

What was measured:
[1] = system: lysosomes in HEK 293T cells; test: In situ lysosomal membrane potential measurement with Voltair^IM, with and without pharmacological treatment; type: cell-based, Human; conditions: for ΔVLys: HEK 293T
[2] = system: cytosolic Ca^2+ in COS-7 cells; test: Cytosolic calcium imaging with Fluo-4 AM upon ATP addition; type: cell-based, Monkey; conditions: COS-7, 100 µM ATP
lysosomes of COS-7 cells = test: Time lapse imaging of lysosomal membrane potential upon ATP addition; type: cell-based, Monkey; conditions: COS-7, 100 µM ATP
Source text: Time lapse Imaging: […] Image acquisition was briefly paused at indicated time for addition of chemicals (ML-SA1, Baf-A1, ATP or DMSO) to cells. To minimize bleaching, time-lapse imaging was done at single focal plane. Z-drift compensator module from IX83 was applied to minimize out of focus drift during time lapse imaging. The extracellular ATP induced cytosolic calcium increase was imaged by labeling COS-7 cells with cell permeable calcium sensitive dye Fluo4-AM ester. Time-lapse imaging of Fluo-4 labeled COS-7 cells were acquired using a 480/20 band pass excitation filter, 520/40 band pass emission filter and 89016 dichroic, at 1 s interval for 20 mins.

[3] = system: endogenous scavenger receptor; test: Competition assay of DNA nanodevice uptake in cell types expressing endogenous scavenger receptor; type: cell-based; conditions: THP-1, BHK-21, HDF, RAW 264.7, T-47D, COS-7
[4] = target: T1, human macrophage scavenger receptor (hMSR1) (Homo sapiens, UniProt P21757); test: Competition assay of DNA device uptake with maleylated BSA; type: cell-based
T1 construct: expressed in transfected cells; host or cells: HEK 293T
T1 sequence (P21757 1-451): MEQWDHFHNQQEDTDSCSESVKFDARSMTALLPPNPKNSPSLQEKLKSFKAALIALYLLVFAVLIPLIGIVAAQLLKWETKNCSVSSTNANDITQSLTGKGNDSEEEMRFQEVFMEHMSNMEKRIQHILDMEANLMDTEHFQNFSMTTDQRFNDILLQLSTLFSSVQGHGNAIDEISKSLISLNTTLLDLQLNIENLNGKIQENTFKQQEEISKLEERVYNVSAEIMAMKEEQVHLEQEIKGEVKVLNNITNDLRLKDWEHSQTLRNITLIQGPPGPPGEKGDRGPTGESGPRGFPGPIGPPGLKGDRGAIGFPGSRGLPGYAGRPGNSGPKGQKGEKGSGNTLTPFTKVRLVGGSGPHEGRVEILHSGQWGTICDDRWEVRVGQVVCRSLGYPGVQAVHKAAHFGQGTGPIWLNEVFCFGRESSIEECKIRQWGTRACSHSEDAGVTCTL
Description: Competition assay: HEK 293T cells transfected with hMSR1-CFP were washed with 1X PBS, pH 7.4 prior to labeling with the DNA device. Cells were incubated with 20 µM maleylated BSA (mBSA) for 15 min, followed by a 20 min pulse of 500 nM DNA device and 20 µM mBSA to allow internalization by receptor mediated endocytosis. Control cells were washed and pulsed for 20 mins in 500 nM DNA device without mBSA. Cells were then washed three times with 1× PBS and chased for 30 mins in complete DMEM media. Complete media was replaced with Opti-MEM solution (Thermofisher) and imaged by widefield microscopy for quantification and confocal microscopy for representative images. Whole cell intensities in the Atto647N channel were quantified for cells expressing hMSR1-CFP observed in CFP channel. The mean intensity from three different experiments were normalized against the no mBSA control, for n~50 cells.

early endosomes = test: Time-lapse imaging of early endosome membrane potential upon TRPML1 activation; type: cell-based; conditions: ML-SA1
[5] = system: trans Golgi network in HEK 293 cells expressing scFv-furin; test: Organellar membrane potential measurement, trans Golgi network; type: cell-based, Human; conditions: V-ATPase inhibition (bafilomycin A1 500 nM per FIG. 4)
[6] = system: recycling endosomes in HEK 293T cells; test: Organellar membrane potential measurement, recycling endosomes; type: cell-based, Human; conditions: 500 nM bafilomycin A1
[7] = in the presence of Torin-1 and trans-ned-19 1 µM

## COc1ccc([C@H]2N[C@H](C(=O)O)Cc3c2[nH]c2ccccc32)cc1CN1CCN(c2ccccc2F)CC1 [trans-ned-19]
[1]; [7]
  VLys: +80 mV
  ΔVLys due to TPC2 channel inhibition: 35 mV

## Nc1ncnc2c1ncn2[C@@H]1O[C@H](COP(=O)(O)OP(=O)(O)OP(=O)(O)O)[C@@H](O)[C@H]1O [ATP]
[2]
  time to maximum cytosolic Ca^2+ level after addition: ~ 5 seconds
Lysosomes of COS-7 cells
  acute hyperpolarization of the lysosomal membrane: +75 mV
  duration of lysosomal hyperpolarization: ~ 100 seconds
  time from maximal cytosolic Ca^2+ elevation to lysosomal hyperpolarization: ~ 80 seconds

## maleylated BSA: a strong ligand for scavenger receptors
[3]
  effect on DNA nanodevice uptake: decreases uptake
[4]; CFP-hMSR1 transfected HEK 293T, 30eq. mBSA, 500 nM Voltair^PM, 30 mins
  effect on endocytosis of Voltair^PM: blocks endocytosis
[4]; HEK 293T cells expressing hMSR1-CFP
  effect on uptake of Voltair^IM: efficiently competed out

## CC1CC(C)(C)N(C(=O)CN2C(=O)c3ccccc3C2=O)c2ccccc21 (stereo not shown) [ML-SA1]
[1]; ML-SA1 20 µM, TRPML1 activator
  ΔVLys: 90 mV
Early endosomes
  membrane potential in early endosomes (VEE) upon treatment: stayed constant

## CCC(=O)N1CCN(c2ccc(-n3c(=O)ccc4cnc5ccc(-c6cnc7ccccc7c6)cc5c43)cc2C(F)(F)F)CC1 [Torin-1]
[1]; Torin-1 1 µM, mTORC1 inhibition
  reduction of VLys from the resting VLys: ~60 mV

## O=c1[nH]c2cc(C(F)(F)F)ccc2n1-c1cc(C(F)(F)F)ccc1O [NS1619]
[1]; ML-SA1 as well as BK channel agonist NS1619
  ΔVLys: 50 mV

## CO/C1=C\C(C)=C\[C@@H](C)[C@@H](O)[C@@H](C)C/C(C)=C/C=C/[C@H](OC)[C@@H]([C@@H](C)[C@@H](O)[C@H](C)[C@@]2(O)C[C@@H](O)[C@H](C)[C@@H](C(C)C)O2)OC1=O [bafilomycin A1]
[1]; bafilomycin A1 500 nM, V-ATPase inhibition
  reduction of VLys from the resting membrane potential: ~ 100 mV
[5]
  membrane potential remaining across the TGN after V-ATPase inhibition: +75 mV
[6]
  change of VRE upon V-ATPase inhibition: no change
